Assay results published in patent KR20240014570A, “양전하성 응집-유도 방출 화합물 및 이의 용도” (priority 2020, dated 2022).

Tests used:
[1] = tested on: Gram-negative bacteria (그람음성균): E.coli, ESBL-EC; format: cell-based; details: 1 μM; white light 25 mW/cm2, 10 min
[2] = tested on: S.aureus (그람양성, ATCC 25923); experiment: Photodynamic antibacterial effect, agar plate colonies; format: cell-based; details: 1 μM; white light 25 mW/cm2, 10 min
[3] = tested on: all strains (모든 균주); experiment: Photodynamic antibacterial effect, all strains; format: cell-based; details: 3 μM, with or without white light
[4] = tested on: ESBL E.coli (ESBL-EC, 그람 음성, ATCC BAA-198); experiment: microbe, parasite or virus in culture; details: Escherichia coli, ATCCBAA198, 10 min, read-out: inhibition of ESBL-EC growth
[5] = tested on: ESBL E.coli (ESBL-EC, 그람 음성, ATCC BAA-198); details: same conditions: 3 μM, white light 25 mW/cm2, 10 min

| SMILES | photodynamic antibacterial effect against Gram-negative bacteria [1] | photodynamic antibacterial activity against Gram-positive bacteria [2] | bacterial colonies [3] | inhibition at 3 µM [4] [%] | photodynamic antibacterial effect [5] |
| --- | --- | --- | --- | --- | --- |
| C=Cc1c(C)c2cc3nc(c(CC(=O)O)c4[nH]c(cc5nc(cc1[nH]2)C(C)=C5CC)c(C)c4C(=O)O)C(CCC(=O)O)C3C (stereo not shown) [Ce6] | 유의한 효과를 확인할 수 없었다 | 광역학적 항균 활성을 보였지만 | – | – | – |
| C(=Cc1ccnc2ccccc12)c1ccc(-c2ccc(N(c3ccccc3)c3ccccc3)cc2)s1 [DQVTA] | – | – | 변하지 않음 | – | – |
| CN(C)c1ccc2nc3ccc(=[N+](C)C)cc-3sc2c1 [MB, 메틸렌 블루] | 유의한 효과를 확인할 수 없었다 | 광역학적 항균 활성을 보였지만 | – | ~50 | 유의한 광역학적 항균 효과를 나타내지 않았고 |
